{"source": "patent US12029734B2", "about": "“Compositions and methods for treatment of symptoms in Parkinson's disease patients” (Tyler Medical Research, LLC, priority 2011, dated 2024)", "key": {"[1]": {"tested_on": "patients with idiopathic PD and LIDS", "method": "(§1) Safety was assessed by incidences of adverse experiences (AE), clinical laboratory tests, serum cotinine, ECG and vital signs. Impulsive symptoms were assessed using the Jay Modified Minnesota Impulsive Disorders Interview (JayMidi). Withdrawal symptoms were evaluated using the Minnesota Nicotine Withdrawal Scale (MNWS-R)."}, "[2]": {"tested_on": "patients with idiopathic PD and LIDS", "from_the_text": "A total of 65 patients with idiopathic PD and LIDS were enrolled in a phase II study. Major entry criteria were as follows: 1) Hoehn and Yahr Stage II-IV while in “on” state, 2) had moderately to severely disabling LIDS>25% of waking day as determined by a rating of >2 on each of Questions 32 and 33 of the Unified Parkinson's Disease Rating Scale (UPDRS), 3) be on stable doses of levodopa and other medicines for PD for >30 days, 4) have a negative screening urine test for cotinine, and 5) not be a smoker or previous smoker or regular exposure to second-hand smoke. The study consisted of 3 phases: a treatment period of 10 weeks, a 9-day drug taper period, and a 5-day follow-up period. Subjects were randomly assigned to receive either nicotine or placebo (pbo). Dosing began at 1 mg q6 hr and was escalated at 2-week intervals to 6 mg q6 hr (24 mg/day). All subjects were allowed to take ondansetron as rescue medication for the treatment of nausea and/or vomiting for the first 3 days of each dose escalation. Subjects were maintained on 24 mg/day for 4 weeks.\nEfficacy was assessed using the UPDRS (total of Parts II+III+IV), sum of Q32+Q33, Unified Dyskiensia Rating Scale (UDysRS) total scores and subscores, Lang-Fahn Dyskinesia Activities of Daily Living Scale (LF-ADL), physician and patient ratings of improvement from baseline in dyskinesias on 7-point CGI-C and PGI-C scales, and responder analyses (subjects with >25% improvement from baseline) on UDysRS total score and LF-ADL, and % subjects with any improvement on PGI-C and CGI-C.\nThe safety population for all safety analyses consisted of all subjects who received at least 1 dose of nicotine or placebo.", "remark": "listed apart in the source"}, "[3]": {"tested_on": "patients with idiopathic PD and LIDS", "assay": "Phase II clinical trial of nicotine: safety assessments (AEs, laboratory tests, serum cotinine, ECG, JayMidi, MNWS-R)", "conditions": "human, in vivo", "method": "as §1"}, "[4]": {"conditions": "cited from earlier work"}}, "note": "Like-named read-outs stand apart in the source and are kept apart here.", "data": [{"compound": "CN1CCC[C@H]1c1cccnc1", "note": "[nicotine, 3-[(2S)-1-methylpyrrolidin-2-yl]pyridine]", "values": [{"measurement": "overall safety and tolerability", "setting": "[1]; PD patients with LIDS, oral, escalated from 1 mg q6 hr to 6 mg q6 hr (24 mg/day), 10 weeks", "value": "generally safe and well-tolerated"}, {"measurement": "withdrawal symptoms, MNWS-R score (maximal score 60)", "setting": "[1]; Week 10 (end of drug treatment)", "value": 7.5}, {"measurement": "relation of SAEs to study medication", "setting": "[1]; all SAEs", "value": "unrelated to study medication"}, {"measurement": "withdrawal symptoms, MNWS-R score (maximal score 60)", "setting": "[1]; end of the follow-up period", "value": 5.4}, {"measurement": "occurrences of impulsivity disorders (positive score on any JayMidi module)", "setting": "[1]; nicotine group", "value": 1, "unit": "subject"}, {"measurement": "overall incidence of serious AEs (SAE)", "setting": "[1]; nicotine group", "value": 4, "unit": "subjects"}, {"measurement": "percentage of subjects reporting treatment-related AEs", "setting": "[1]; nicotine group", "value": 54, "unit": "%"}, {"measurement": "subjects who used rescue medication (ondansetron)", "setting": "[1]; nicotine group", "value": "Twenty-nine"}, {"measurement": "treatment-emergent AE: constipation, subjects", "setting": "[1]; nicotine group", "value": 11, "unit": "%"}, {"measurement": "treatment-emergent AE: dizziness, subjects", "setting": "[1]; nicotine group", "value": 11, "unit": "%"}, {"measurement": "treatment-emergent AE: fatigue, subjects", "setting": "[1]; nicotine group", "value": 9, "unit": "%"}, {"measurement": "treatment-emergent AE: nausea, subjects", "setting": "[1]; nicotine group", "value": 31, "unit": "%"}, {"measurement": "treatment-emergent AE: nightmares, subjects", "setting": "[1]; nicotine group", "value": 6, "unit": "%"}, {"measurement": "treatment-emergent AE: non-specific pain, subjects", "setting": "[1]; nicotine group", "value": 9, "unit": "%"}, {"measurement": "treatment-emergent AE: vomiting, subjects", "setting": "[1]; nicotine group", "value": 6, "unit": "%"}, {"measurement": "subjects withdrawn due to treatment-related AEs", "setting": "[1]; nicotine group, n=35 randomized", "value": 6, "unit": "subjects"}, {"measurement": "subjects withdrawn due to treatment-related AEs", "setting": "[1]; on 4 mg/day", "value": 1, "unit": "subject"}, {"measurement": "subjects withdrawn due to treatment-related AEs", "setting": "[1]; on 8 mg/day", "value": 1, "unit": "subject"}, {"measurement": "subjects withdrawn due to treatment-related AEs", "setting": "[1]; on 16 mg/day", "value": 2, "unit": "subjects"}, {"measurement": "subjects withdrawn due to treatment-related AEs", "setting": "[1]; on 24 mg/day", "value": 2, "unit": "subjects"}, {"measurement": "serum cotinine levels", "setting": "[1]; patients treated with nicotine, dose escalation", "value": "increased with increasing dose"}, {"measurement": "intensity of the majority of adverse events", "setting": "[1]; transient in duration", "value": "mild or moderate in intensity"}, {"measurement": "UPDRS total scores", "setting": "[2]; 10 weeks of treatment", "value": "did not worsen, but improved"}, {"measurement": "number of UDysRS subscores improved (mean changes from baseline compared to pbo)", "setting": "[2]; Week 10 (FIG. 3)", "value": "9 of 10"}, {"measurement": "UPDRS Part III score, maximum mean improvement", "setting": "[2]; Week 10, change from baseline (FIG. 1)", "value": 2.0, "unit": "points"}, {"measurement": "LF-ADL responders (>25% improvement from baseline)", "setting": "[2]; Week 10, p=0.04 versus pbo", "value": 56, "unit": "%"}, {"measurement": "CGI-C pattern compared to pbo", "setting": "[2]; after 10 weeks (FIG. 4)", "value": "similar, but not statistically significant pattern"}, {"measurement": "PGI-C: patients rating themselves as having any degree of improvement", "setting": "[2]; after 10 weeks, p=0.004 versus pbo (FIG. 4)", "value": 78, "unit": "%"}, {"measurement": "efficacy on LIDS on the majority of patient- and physician-rated outcome measures", "setting": "[2]; compared to pbo", "value": "trend or statistically significant improvement"}, {"measurement": "UPDRS mean change from baseline to Week 10", "setting": "[2]; compared to placebo, every visit during drug treatment", "value": "numerical improvement"}, {"measurement": "UDysRS total score", "setting": "[2]; every study visit during the drug-treatment period (FIG. 2)", "value": "Mean improvement from baseline and greater separation from pbo"}, {"measurement": "PGI-C: distribution of subjects in each category compared to pbo", "setting": "[2]; p=0.02", "value": "significant"}, {"measurement": "ambulation (UDysRS subscore)", "setting": "[2]; versus pbo, p=0.01", "value": "Statistically significant improvement"}, {"measurement": "changes in ECG parameters", "setting": "[3]", "value": "no clinically relevant changes"}, {"measurement": "withdrawal symptoms as assessed by MNWS-R, clinical relevance", "setting": "[3]", "value": "not a clinically relevant issue"}]}, {"compound": "N[C@@H](Cc1ccc(O)c(O)c1)C(=O)O", "note": "[Levodopa, L-3,4-dihydroxyphenylalanine (S)-2-amino-3-(3,4-dihydroxyphenyl)propanoic acid]", "values": [{"measurement": "solubility in water", "setting": "[4]", "value": "slightly soluble in water"}]}]}
